# Measurements published in US9675605B2, “Substituted naphthyridine and quinoline compounds as MAO inhibitors” (DART NEUROSCIENCE (CAYMAN) LTD., priority 2013, dated 2017).
# Biological target: Human recombinant MAO-A (Homo sapiens (Human), UniProt P21397)
# Test: MAO enzymatic assay, MAO-B selectivity (MAO-A/MAO-B)
# Format: biochemical
# Conditions: selectivity for MAO-B over MAO-A; values given as ranges
# Experimental: (§1) The MAO enzymatic assay was performed according to the fluorometric method described by Matsumoto and colleagues (Matsumoto et al., Clin. Biochem. 1985, 18, 126-129) with the following modifications. Human recombinant MAO-A and MAO-B expressed in insect cells were used. For both assays, test compound and/or vehicle were preincubated with purified enzyme in phosphate buffer pH 7.4 for 15 minutes at 37° C. The reaction was initiated by addition of […] kynuramine. Following a 60 minute incubation period, the reaction was terminated by the addition of 6 N NaOH. The amount of 4-hydroxyquinoline that formed was determined by spectrofluorimetrically at 325 nm/465 nm.
# (§2) Results were converted to percent inhibition, and the EC50 (M) for each reaction was determined using the XLfit program from IDBS (ID Business Solutions Ltd., 2 Occam Court, Surrey Research Park, Guildford, Surrey, GU2 7QB UK). The EC50 represents the concentration of a compound where 50% of its maximal effect is observed. The pEC50 is defined as the negative logarithm of the EC50; a higher pEC50 value therefore corresponds to higher potency in the assay.
# Chain of Human recombinant MAO-A (P21397 whole entry): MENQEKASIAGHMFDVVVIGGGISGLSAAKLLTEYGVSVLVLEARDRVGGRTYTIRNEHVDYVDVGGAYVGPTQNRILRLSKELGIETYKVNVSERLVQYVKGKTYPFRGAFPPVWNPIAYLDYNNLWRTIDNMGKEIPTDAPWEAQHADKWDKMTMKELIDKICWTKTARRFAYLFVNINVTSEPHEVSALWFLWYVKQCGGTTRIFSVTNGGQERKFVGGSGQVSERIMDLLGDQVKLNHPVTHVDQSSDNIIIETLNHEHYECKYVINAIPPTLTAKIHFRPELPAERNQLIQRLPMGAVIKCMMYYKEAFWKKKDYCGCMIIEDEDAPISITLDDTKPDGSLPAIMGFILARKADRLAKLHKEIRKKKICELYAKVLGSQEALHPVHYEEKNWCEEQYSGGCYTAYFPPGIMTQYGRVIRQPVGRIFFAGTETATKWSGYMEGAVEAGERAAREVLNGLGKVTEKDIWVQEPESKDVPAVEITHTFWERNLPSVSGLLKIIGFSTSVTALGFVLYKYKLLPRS
row,SMILES,MAO-A/MAO-B
1,"CCOC(=O)c1cnc2cc(OCc3ccc(Cl)cc3)ccc2c1 [Example 1, Ethyl 7-[(4-chlorophenyl)methoxy]quinoline-3-carboxylate]",>10-100
2,"CCOC(=O)c1cnc2cc(OCc3ccc(F)cc3)ccc2c1 [Example 2, Ethyl 7-[(4-fluorophenyl)methoxy]quinoline-3-carboxylate]",>100-200
3,"CCOC(=O)c1cnc2cc(OCc3cccc(Cl)c3)ccc2c1 [Example 3, Ethyl 7-[(3-chlorophenyl)methoxy]quinoline-3-carboxylate]",>10-100
4,"CCOC(=O)c1cnc2cc(OCc3cccc(F)c3)ccc2c1 [Example 4, Ethyl 7[(3-fluorophenyl)methoxy]quinoline-3-carboxylate]",1-10
5,"CCOC(=O)c1cnc2cc(OCc3cccc(C(F)(F)F)c3)ccc2c1 [Example 5, Ethyl 7-((3-(trifluoromethyl)benzyl)oxy)quinoline-3-carboxylate]",>100-200
6,"CCOC(=O)c1cnc2cc(OCc3ccc(C(F)(F)F)cc3)ccc2c1 [Example 6, Ethyl 7-((4-(trifluoromethyl)benzyl)oxy)quinoline-3-carboxylate]",>10-100
7,"CCOC(=O)c1cnc2cc(OCc3cccc(C)c3)ccc2c1 [Example 7, Ethyl 7-((3-methylbenzyl)oxy)quinoline-3-carboxylate]",>100-200
8,"CCOC(=O)c1cnc2cc(OCc3ccc(C)cc3)ccc2c1 [Example 8, Ethyl 7-((4-methylbenzyl)oxy)quinoline-3-carboxylate]",>10-100
9,"CCOC(=O)c1cnc2cc(OCc3cccc(OC)c3)ccc2c1 [Example 9, Ethyl 7-((3-methoxybenzyl)oxy)quinoline-3-carboxylate]",>100-200
10,"CCOC(=O)c1cnc2cc(OCc3ccc(OC)cc3)ccc2c1 [Example 10, Ethyl 7-((4-methoxybenzyl)oxy)quinoline-3-carboxylate]",>10-100
11,"CCOC(=O)c1cnc2cc(OCc3ccc([N+](=O)[O-])cc3)ccc2c1 [Example 11, Ethyl 7-((4-nitrobenzyl)oxy)quinoline-3-carboxylate]",1-10
12,"CCOC(=O)c1cnc2cc(OCc3ccc(F)c(C(F)(F)F)c3)ccc2c1 [Example 12, Ethyl 7-((4-fluoro-3-(trifluoromethyl)benzyl)oxy)quinoline-3-carboxylate]",>200
13,"CCOC(=O)c1cnc2cc(OCc3cc(F)cc(C(F)(F)F)c3)ccc2c1 [Example 13, Ethyl 7-((3-fluoro-5-(trifluoromethyl)benzyl)oxy)quinoline-3-carboxylate]",>100-200
14,"CCOC(=O)c1cnc2cc(OCc3ccc(F)c(F)c3)ccc2c1 [Example 14, Ethyl 7-((3,4-difluorobenzyl)oxy)quinoline-3-carboxylate]",>200

# Continued, values first:
row,MAO-A/MAO-B,SMILES
1,>200,"CCOC(=O)c1cnc2cc(OCc3cc(F)cc(F)c3)ccc2c1 [Example 15, Ethyl 7-((3,5-difluorobenzyl)oxy)quinoline-3-carboxylate]"
2,>200,"CCOC(=O)c1cnc2cc(OCc3cc(F)c(F)c(F)c3)ccc2c1 [Example 16, Ethyl 7-((3,4,5-trifluorobenzyl)oxy)quinoline-3-carboxylate]"
3,>100-200,"CCOC(=O)c1cnc2cc(OCc3ccc(F)c(Cl)c3)ccc2c1 [Example 17, Ethyl 7-((3-chloro-4-fluorobenzyl)oxy)quinoline-3-carboxylate]"
4,>10-100,"CCOC(=O)c1cnc2cc(OCc3cccc([N+](=O)[O-])c3)ccc2c1 [Example 18, Ethyl 7-((3-nitrobenzyl)oxy)quinoline-3-carboxylate]"
5,>10-100,"CCOC(=O)c1cnc2cc(OCCc3cccc(F)c3)ccc2c1 [Example 24, Ethyl 7-(3-fluorophenethoxy)quinoline-3-carboxylate]"
6,>10-100,"CCOC(=O)c1cnc2cc(OCCc3cccc(Cl)c3)ccc2c1 [Example 25, Ethyl 7-(3-chlorophenethoxy)quinoline-3-carboxylate]"
7,>200,"CC(C)(O)c1cnc2cc(OCc3ccc(F)cc3)ccc2c1 [Example 27, 2-(7-((4-Fluorobenzyl)oxy)quinolin-3-yl)propan-2-ol]"

# Biological target: Human recombinant MAO-B (Homo sapiens (Human), UniProt P27338)
# Sequence (P27338 whole entry): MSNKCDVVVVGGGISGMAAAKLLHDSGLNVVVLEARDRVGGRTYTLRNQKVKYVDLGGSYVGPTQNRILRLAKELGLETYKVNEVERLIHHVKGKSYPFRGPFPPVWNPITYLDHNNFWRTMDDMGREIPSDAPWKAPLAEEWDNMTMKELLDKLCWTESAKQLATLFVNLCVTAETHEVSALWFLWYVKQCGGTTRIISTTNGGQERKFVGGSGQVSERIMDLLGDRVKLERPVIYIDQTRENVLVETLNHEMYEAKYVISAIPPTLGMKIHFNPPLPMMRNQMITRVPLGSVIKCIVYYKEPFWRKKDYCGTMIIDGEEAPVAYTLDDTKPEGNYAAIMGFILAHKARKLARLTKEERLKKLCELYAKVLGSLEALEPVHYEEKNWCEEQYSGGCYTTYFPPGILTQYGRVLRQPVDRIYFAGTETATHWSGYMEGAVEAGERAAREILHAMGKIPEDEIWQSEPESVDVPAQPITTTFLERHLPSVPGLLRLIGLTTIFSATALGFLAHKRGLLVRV
# Test: MAO-B enzymatic assay (fluorometric, kynuramine)
# Format: biochemical
# Conditions: human recombinant MAO-B expressed in insect cells, 50 μm kynuramine, pH 7.4, 37° C.; values given as ranges; read-out: MAO-B (pEC50) (converted)
# Experimental: as §1, §2
# Representative compounds of the invention were evaluated in the MAO-B enzymatic assay. Typically, the compounds of the invention show MAO-B inhibitory properties at a concentration of 0.1 to 10 μM, typically at 5-100%.
row,EC50 [nM],SMILES
1,100 to 1000,"CCOC(=O)Cc1cnc2cc(OCc3cccc(Cl)c3)ccc2c1 [Example 51, Ethyl 2-(7-((3-chlorobenzyl)oxy)quinolin-3-yl)acetate]"
